PMC8222254, “Self-assembly of an anion receptor with metal-dependent kinase inhibition and potent in vitro anti-cancer properties” (Nature Communications, 2021)
“And” between values parts separate entries of the source, which are not always exact repeats. Equal entries are not always repeated.

Legend:
Assay in all cases: Kinase inhibition screen, cell-free 33P ATP assay at 10 μM
Format in all cases: biochemical
[1] = molecular target: T1, 140 purified human kinases (Homo sapiens, UniProt Q7L7X3)
T1 sequence (Q7L7X3 1-1001): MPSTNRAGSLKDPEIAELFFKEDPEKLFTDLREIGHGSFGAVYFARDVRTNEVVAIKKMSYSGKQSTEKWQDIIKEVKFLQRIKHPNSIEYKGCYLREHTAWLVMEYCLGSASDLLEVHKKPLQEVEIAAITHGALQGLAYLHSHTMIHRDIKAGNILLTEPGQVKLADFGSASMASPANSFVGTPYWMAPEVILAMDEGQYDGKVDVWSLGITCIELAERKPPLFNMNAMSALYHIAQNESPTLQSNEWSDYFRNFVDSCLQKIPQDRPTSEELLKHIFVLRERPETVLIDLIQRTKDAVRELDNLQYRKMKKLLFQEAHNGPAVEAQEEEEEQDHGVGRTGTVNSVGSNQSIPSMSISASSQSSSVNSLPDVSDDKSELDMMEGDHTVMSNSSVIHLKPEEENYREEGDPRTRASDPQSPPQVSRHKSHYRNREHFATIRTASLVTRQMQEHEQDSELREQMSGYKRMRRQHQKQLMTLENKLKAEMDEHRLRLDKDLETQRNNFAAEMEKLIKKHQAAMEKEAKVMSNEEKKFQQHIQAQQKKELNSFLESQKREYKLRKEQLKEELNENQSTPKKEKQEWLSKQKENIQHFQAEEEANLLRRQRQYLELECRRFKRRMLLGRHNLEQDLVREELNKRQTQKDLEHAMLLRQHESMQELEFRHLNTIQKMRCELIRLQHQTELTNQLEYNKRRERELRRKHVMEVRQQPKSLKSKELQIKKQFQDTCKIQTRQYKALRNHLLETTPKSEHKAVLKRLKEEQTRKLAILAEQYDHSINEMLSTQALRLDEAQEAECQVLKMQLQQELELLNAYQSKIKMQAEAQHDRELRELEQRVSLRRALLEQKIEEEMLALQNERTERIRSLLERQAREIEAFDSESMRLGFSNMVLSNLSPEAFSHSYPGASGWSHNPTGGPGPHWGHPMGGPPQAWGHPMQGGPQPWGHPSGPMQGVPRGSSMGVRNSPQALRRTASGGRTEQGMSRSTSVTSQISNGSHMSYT
Protocol: (§1) [L2Cu3]^6+ and [L2Zn3]^6+ were submitted to the MRC Protein Phosphorylation and Ubiquitination Unit International Centre for Kinase Profiling (University of Dundee) and tested in duplicate (at 10 μM) against a series of 140 purified human kinases in a cell-free kinase assay using ^33P ATP[55],[56]. The kinase gene IDs from the screen were then translated into common IDs (HGNC symbol) using biomaRt package[57],[58] in R[59] and R Studio[60] and used as input to the KinMap programme.

[2] = molecular target: 140 purified human kinases (Homo sapiens, UniProt Q9H0K1)
140 purified human kinases (Homo sapiens, UniProt Q9H0K1), sequence (Q9H0K1 whole entry): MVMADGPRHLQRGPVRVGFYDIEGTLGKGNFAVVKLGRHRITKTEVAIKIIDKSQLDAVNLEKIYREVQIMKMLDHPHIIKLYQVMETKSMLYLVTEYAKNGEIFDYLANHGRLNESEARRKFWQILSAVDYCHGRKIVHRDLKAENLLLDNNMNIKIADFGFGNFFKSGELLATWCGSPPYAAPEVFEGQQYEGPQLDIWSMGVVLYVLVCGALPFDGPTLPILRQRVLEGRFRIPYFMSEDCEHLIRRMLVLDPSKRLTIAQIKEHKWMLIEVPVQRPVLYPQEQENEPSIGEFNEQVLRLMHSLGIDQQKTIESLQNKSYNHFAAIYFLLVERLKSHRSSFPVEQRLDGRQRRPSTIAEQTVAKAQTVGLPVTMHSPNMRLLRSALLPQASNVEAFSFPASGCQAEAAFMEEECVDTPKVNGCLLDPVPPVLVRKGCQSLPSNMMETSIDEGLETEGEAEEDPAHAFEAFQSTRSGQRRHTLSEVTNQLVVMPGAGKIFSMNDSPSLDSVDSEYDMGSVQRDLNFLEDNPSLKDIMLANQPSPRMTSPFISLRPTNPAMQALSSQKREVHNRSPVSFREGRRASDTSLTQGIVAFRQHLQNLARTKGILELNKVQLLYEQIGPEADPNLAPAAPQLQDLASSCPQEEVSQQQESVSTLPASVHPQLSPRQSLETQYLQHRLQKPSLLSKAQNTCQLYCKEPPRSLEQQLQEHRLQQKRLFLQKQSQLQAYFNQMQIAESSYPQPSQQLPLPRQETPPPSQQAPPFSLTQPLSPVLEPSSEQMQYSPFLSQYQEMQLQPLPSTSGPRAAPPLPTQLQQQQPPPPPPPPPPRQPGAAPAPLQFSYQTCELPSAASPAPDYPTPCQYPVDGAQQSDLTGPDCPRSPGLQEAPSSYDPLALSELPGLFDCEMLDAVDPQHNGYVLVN
Protocol: as §1

[3] = molecular target: 140 purified human kinases (Homo sapiens, UniProt Q13164)
140 purified human kinases (Homo sapiens, UniProt Q13164), sequence (Q13164 whole entry): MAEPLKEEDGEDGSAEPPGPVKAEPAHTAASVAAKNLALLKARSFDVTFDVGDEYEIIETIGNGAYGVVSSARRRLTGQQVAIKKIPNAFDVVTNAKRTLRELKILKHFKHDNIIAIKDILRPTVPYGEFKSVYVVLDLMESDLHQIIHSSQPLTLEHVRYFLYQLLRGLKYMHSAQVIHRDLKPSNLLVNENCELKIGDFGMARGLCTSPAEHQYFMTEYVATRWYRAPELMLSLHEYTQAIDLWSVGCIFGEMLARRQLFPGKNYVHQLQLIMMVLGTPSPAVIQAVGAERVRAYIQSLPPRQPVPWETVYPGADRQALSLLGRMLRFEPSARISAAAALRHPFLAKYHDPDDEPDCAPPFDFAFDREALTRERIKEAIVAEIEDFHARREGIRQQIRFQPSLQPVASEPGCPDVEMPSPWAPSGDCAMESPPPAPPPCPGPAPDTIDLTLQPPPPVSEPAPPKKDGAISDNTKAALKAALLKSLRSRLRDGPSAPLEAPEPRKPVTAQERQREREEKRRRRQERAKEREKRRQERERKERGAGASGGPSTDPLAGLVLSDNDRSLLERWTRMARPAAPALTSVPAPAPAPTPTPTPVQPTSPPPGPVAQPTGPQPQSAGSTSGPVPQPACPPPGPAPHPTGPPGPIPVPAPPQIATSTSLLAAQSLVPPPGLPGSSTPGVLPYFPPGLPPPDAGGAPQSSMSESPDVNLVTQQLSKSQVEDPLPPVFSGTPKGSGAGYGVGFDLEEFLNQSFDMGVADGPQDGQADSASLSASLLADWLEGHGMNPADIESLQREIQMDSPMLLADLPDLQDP
Protocol: as §1

[4] = molecular target: T2, 140 purified human kinases (Homo sapiens, UniProt P54762)
T2 sequence (P54762 18-984): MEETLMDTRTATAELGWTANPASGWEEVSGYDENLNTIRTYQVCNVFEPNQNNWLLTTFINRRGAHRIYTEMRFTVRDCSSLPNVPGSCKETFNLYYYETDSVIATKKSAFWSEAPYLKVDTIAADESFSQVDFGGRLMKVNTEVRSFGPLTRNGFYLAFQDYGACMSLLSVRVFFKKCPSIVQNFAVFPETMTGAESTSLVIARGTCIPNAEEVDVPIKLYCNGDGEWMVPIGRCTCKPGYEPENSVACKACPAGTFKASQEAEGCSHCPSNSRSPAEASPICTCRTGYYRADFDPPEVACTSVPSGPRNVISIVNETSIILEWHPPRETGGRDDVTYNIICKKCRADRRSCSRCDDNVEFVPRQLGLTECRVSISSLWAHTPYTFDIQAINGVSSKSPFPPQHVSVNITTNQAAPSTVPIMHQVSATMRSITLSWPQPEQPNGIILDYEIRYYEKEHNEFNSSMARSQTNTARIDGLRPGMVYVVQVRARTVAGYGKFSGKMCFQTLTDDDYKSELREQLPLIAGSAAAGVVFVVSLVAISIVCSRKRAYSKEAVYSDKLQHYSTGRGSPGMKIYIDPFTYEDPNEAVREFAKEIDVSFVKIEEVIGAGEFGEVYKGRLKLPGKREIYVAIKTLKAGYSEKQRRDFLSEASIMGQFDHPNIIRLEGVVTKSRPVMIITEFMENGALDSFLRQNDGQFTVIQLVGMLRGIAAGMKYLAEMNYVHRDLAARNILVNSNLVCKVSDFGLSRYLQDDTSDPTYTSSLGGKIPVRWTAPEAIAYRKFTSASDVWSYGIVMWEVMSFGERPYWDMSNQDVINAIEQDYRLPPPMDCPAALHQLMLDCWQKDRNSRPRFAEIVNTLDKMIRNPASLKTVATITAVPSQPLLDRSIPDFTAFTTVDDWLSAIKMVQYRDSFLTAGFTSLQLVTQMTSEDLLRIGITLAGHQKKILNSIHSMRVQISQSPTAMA
Protocol: as §1

[5] = molecular target: 140 purified human kinases (Homo sapiens, UniProt P68400)
140 purified human kinases (Homo sapiens, UniProt P68400), sequence (P68400 whole entry): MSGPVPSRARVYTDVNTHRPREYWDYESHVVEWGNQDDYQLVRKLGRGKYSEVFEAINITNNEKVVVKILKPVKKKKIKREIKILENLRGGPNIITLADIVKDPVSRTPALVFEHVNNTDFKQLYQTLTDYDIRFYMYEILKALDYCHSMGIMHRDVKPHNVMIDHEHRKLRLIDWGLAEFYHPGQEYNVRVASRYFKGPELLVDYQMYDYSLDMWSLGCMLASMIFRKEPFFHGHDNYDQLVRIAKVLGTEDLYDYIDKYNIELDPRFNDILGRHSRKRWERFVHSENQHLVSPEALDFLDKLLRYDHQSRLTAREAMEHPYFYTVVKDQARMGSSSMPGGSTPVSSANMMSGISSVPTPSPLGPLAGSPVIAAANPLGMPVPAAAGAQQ
Protocol: as §1

[6] = molecular target: 140 purified human kinases (Homo sapiens, UniProt Q16513)
140 purified human kinases (Homo sapiens, UniProt Q16513), sequence (Q16513 whole entry): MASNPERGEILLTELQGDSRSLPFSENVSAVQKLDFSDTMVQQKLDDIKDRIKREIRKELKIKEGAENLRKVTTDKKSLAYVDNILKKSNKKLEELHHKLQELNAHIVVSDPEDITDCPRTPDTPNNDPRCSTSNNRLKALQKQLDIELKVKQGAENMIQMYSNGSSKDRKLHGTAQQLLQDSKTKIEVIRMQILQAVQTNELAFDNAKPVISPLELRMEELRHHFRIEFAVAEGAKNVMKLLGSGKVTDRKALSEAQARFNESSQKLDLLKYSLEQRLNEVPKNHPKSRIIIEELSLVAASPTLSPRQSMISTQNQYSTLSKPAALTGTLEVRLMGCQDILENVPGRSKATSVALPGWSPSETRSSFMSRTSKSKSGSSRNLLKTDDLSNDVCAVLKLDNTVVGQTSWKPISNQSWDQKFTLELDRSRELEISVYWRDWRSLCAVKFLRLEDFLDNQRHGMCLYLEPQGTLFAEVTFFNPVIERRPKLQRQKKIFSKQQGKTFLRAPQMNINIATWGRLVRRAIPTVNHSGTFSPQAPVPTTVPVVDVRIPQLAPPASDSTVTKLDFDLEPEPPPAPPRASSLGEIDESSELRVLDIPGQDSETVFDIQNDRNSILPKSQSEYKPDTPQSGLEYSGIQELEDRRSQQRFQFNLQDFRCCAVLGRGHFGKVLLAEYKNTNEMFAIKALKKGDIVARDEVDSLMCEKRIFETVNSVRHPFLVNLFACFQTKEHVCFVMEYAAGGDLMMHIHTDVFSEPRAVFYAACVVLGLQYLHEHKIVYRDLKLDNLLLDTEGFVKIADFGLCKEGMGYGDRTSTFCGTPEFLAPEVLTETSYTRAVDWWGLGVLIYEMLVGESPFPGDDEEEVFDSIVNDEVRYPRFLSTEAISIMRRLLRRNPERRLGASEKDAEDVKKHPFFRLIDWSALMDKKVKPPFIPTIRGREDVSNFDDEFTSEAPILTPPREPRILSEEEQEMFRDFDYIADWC
Protocol: as §1

[7] = molecular target: 140 purified human kinases (Homo sapiens, UniProt Q14680); conditions: MELK
140 purified human kinases (Homo sapiens, UniProt Q14680), sequence (Q14680 whole entry): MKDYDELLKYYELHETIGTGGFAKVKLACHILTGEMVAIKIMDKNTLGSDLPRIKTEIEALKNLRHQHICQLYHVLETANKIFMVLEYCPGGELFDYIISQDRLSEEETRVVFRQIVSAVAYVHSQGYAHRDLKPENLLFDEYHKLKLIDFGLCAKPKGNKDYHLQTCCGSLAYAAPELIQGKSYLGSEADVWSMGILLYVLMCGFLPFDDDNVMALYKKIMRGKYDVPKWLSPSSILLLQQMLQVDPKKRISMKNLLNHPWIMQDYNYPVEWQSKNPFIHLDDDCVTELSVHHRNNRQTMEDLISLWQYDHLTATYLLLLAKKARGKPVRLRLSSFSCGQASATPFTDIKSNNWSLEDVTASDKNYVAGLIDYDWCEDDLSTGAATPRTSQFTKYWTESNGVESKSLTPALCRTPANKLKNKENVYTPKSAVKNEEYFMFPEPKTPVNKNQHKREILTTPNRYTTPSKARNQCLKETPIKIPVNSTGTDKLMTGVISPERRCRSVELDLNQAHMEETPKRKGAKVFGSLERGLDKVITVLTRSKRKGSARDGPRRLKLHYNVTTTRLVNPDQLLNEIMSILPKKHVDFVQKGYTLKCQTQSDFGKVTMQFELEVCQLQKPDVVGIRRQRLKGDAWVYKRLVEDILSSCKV
Protocol: as §1

SMILES: CC(=O)[O-].CC(=O)[O-].CC(=O)[O-].CC(=O)[O-].CC(=O)[O-].CC(=O)[O-].[Zn+2].[Zn+2].[Zn+2].c1ccc(-c2csc(NCCN(CCNc3nc(-c4ccccn4)cs3)CCNc3nc(-c4ccccn4)cs3)n2)nc1.c1ccc(-c2csc(NCCN(CCNc3nc(-c4ccccn4)cs3)CCNc3nc(-c4ccccn4)cs3)n2)nc1 [[L2Zn3]6+]
- % Activation, Mean value ([1]; TAO1): 8%
- % Inhibition, Mean ([1]; TAO1): -8%
- mean % activity ([1]; TAO1): 108%
- % activity ([1]; TAO1, duplicate runs): 93% and 122%
- % Inhibition, Mean ([2]; SIK2): 68%
- % Inhibition, Run 1 / Run 2 ([2]; SIK2): 72% and 64%
- mean % activity ([2]; SIK2): 32%
- % activity ([2]; SIK2, duplicate runs): 29% and 36%
- % Inhibition, Mean ([3]; ERK5): 16%
- mean % activity ([3]; ERK5): 84%
- % activity ([3]; ERK5, duplicate runs): 65% and 104%
- % Inhibition, Mean ([4]; EPH-B1): -0.2%
- % Inhibition, Run 1 / Run 2 ([4]; EPH-B1): 4% and -4.6%
- mean % activity ([4]; EPH-B1): 100%
- % activity ([4]; EPH-B1, duplicate runs): 96% and 105%
- % Inhibition, Mean ([5]; CK2): 13%
- % Inhibition, Run 1 / Run 2 ([5]; CK2): 15% and 12%
- mean % activity ([5]; CK2): 87%
- % activity ([5]; CK2, duplicate runs): 85% and 88%
- % Inhibition, Mean ([6]; PRK2): 71%
- % Inhibition, Run 1 / Run 2 ([6]; PRK2): 77% and 65%
- mean % activity ([6]; PRK2): 29%
- % activity ([6]; PRK2, duplicate runs): 23% and 35%
- % Inhibition, Mean [7]: 27%
- % Inhibition, Run 1 / Run 2 [7]: 35% and 19%
- mean % activity [7]: 73%
- % activity ([7]; duplicate runs): 65% and 81%

SMILES: [Cu+2].[Cu+2].[Cu+2].c1ccc(-c2csc(NCCN(CCNc3nc(-c4ccccn4)cs3)CCNc3nc(-c4ccccn4)cs3)n2)nc1.c1ccc(-c2csc(NCCN(CCNc3nc(-c4ccccn4)cs3)CCNc3nc(-c4ccccn4)cs3)n2)nc1 [[L2Cu3]6+]
- % Activation, Mean value ([1]; TAO1): 10%
- % Inhibition Run 1 ([1]; TAO1): -6.6%
- % Inhibition Run 2 ([1]; TAO1): -13.8%
- % Inhibition, Mean ([1]; TAO1): -10%
- mean % activity ([1]; TAO1): 110%
- % activity ([1]; TAO1, Run 1): 106.6%
- % activity ([1]; TAO1, Run 2): 113.8%
- % Activity Run 1 ([1]; TAO1, 10 µM): 106.60%
- % Activity Run 2 ([1]; TAO1, 10 µM): 113.80%
- % Inhibition Run 1 ([2]; SIK2): 88.3%
- % Inhibition Run 2 ([2]; SIK2): 90.4%
- % Inhibition, Mean ([2]; SIK2): 89%
- mean % activity ([2]; SIK2): 11%
- % activity ([2]; SIK2, Run 1): 11.7%
- % activity ([2]; SIK2, Run 2): 9.6%
- % Activation, Mean value ([3]; ERK5): 2%
- % Inhibition Run 1 ([3]; ERK5): 3%
- % Inhibition Run 2 ([3]; ERK5): -7.2%
- % Inhibition, Mean ([3]; ERK5): -2%
- mean % activity ([3]; ERK5): 102%
- % activity ([3]; ERK5, Run 1): 97%
- % activity ([3]; ERK5, Run 2): 107.2%
- % Activation, Mean value ([4]; EPH-B1): 14%
- % Inhibition Run 1 ([4]; EPH-B1): -9.9%
- % Inhibition Run 2 ([4]; EPH-B1): -17.3%
- % Inhibition, Mean ([4]; EPH-B1): -14%
- mean % activity ([4]; EPH-B1): 114%
- % activity ([4]; EPH-B1, Run 1): 109.9%
- % activity ([4]; EPH-B1, Run 2): 117.3%
- % Activity Run 1 ([4]; EPH-B1, 10 µM): 109.90%
- % Activity Run 2 ([4]; EPH-B1, 10 µM): 117.30%
- % Inhibition Run 1 ([5]; CK2): -0.5%
- % Inhibition Run 2 ([5]; CK2): 5.6%
- % Inhibition, Mean ([5]; CK2): 2.55%
- mean % activity ([5]; CK2): 97%
- % activity ([5]; CK2, Run 1): 100.5%
- % activity ([5]; CK2, Run 2): 94.4%
- % Inhibition Run 1 ([6]; PRK2): 87.9%
- % Inhibition Run 2 ([6]; PRK2): 85.6%
- % Inhibition, Mean ([6]; PRK2): 87%
- mean % activity ([6]; PRK2): 13%
- % activity ([6]; PRK2, Run 1): 12.1%
- % activity ([6]; PRK2, Run 2): 14.4%
- % Inhibition Run 1 [7]: 38.7%
- % Inhibition Run 2 [7]: 33.3%
- % Inhibition, Mean [7]: 36%
- mean % activity [7]: 64%
- % activity ([7]; Run 1): 61.3%
- % activity ([7]; Run 2): 66.7%
